From patent publication US11071300B2, “Pesticidally active pyrazole derivatives” (SYNGENTA PARTICIPATIONS AG, priority 2017, dated 2021)
Read-outs that look alike come from different tables or passages of the source.

Tests used:
Format in all cases: in vivo
Spodoptera littoralis = Spodoptera littoralis (Egyptian cotton leaf worm) leaf disc test; conditions: foliar, 72 h, read-out: control (at least one of mortality, anti-feedant effect, growth inhibition); for percent control (mortality, anti-feedant effect or growth inhibition) at 200 ppm: application rate 200 ppm, cotton leaf discs sprayed, L1 larvae, 3 days after infestation
Protocol: Spodoptera littoralis (Egyptian Cotton Leaf Worm)
Cotton leaf discs were placed on agar in 24-well microtiter plates and sprayed with aqueous test solutions prepared from 10′000 ppm DMSO stock solutions. After drying the leaf discs were infested with five L1 larvae. The samples were assessed for mortality, anti-feedant effect, and growth inhibition in comparison to untreated samples 3 days after infestation. Control of Spodoptera littoralis by a test sample is when at least one of mortality, anti-feedant effect, and growth inhibition is higher than the untreated sample.

Plutella xylostella = Plutella xylostella (diamond back moth) artificial diet test; conditions: 120 h, read-out: control (mortality and growth inhibition)
Protocol: Plutella xylostella (Diamond Back Moth):
(§1) 24-well microtiter plates with artificial diet were treated with aqueous test solutions prepared from 10′000 ppm DMSO stock solutions by pipetting. After drying, the plates were infested with L2 larvae (10 to 15 per well). The samples were assessed for mortality and growth inhibition in comparison to untreated samples 5 days after infestation.

Diabrotica Balteata = test: Diabrotica balteata (corn root worm) maize sprout test; conditions: 96 h, read-out: control (mortality and growth inhibition)
Protocol: Diabrotica Balteata, (Corn Root Worm)
as §1, with “Maize sprouts, placed on an agar layer in 24-well” for “24-well”, “plates” for “plates with artificial diet”, “spraying.” for “pipetting.”, “(6” for “(10”, “10” for “15”, “4” for “5”

Thrips tabaci = Thrips tabaci (onion thrips) leaf disc test; conditions: foliar, 144 h, application rate 200 ppm, sunflower leaf discs sprayed, mixed ages, 6 days after infestation, read-out: control (mortality)
Protocol: Thrips tabaci (Onion Thrips):
Sunflower leaf discs were placed on agar in 24-well microtiter plates and sprayed with aqueous test solutions prepared from 10′000 ppm DMSO stock solutions. After drying the leaf discs were infested with a thrips population of mixed ages. The samples were assessed for mortality 6 days after infestation.

[1] = application rate 200 ppm, artificial diet, L2 larvae, 5 days after infestation
[2] = application rate 200 ppm, maize sprouts sprayed, L2 larvae, 4 days after infestation

SMILES | mortality at 200 ppm (Spodoptera littoralis) | percent control (mortality, anti-feedant effect or growth inhibition) at 200 ppm (Spodoptera littoralis) | mortality at 200 ppm (Plutella xylostella; [1]) | mortality at 200 ppm (Diabrotica Balteata; [2]) | mortality at 200 ppm (Thrips tabaci) | mortality at 200 ppm (Plutella xylostella) | mortality at 200 ppm (Diabrotica Balteata)
Cn1nc(OS(=O)(=O)F)c(C(F)(F)F)c1-n1cc(-c2ccc(Cl)c(C(=O)NC3CC3)c2)cn1 [Compound 4, 5-[4-[4-chloro-3-(cyclopropylcarbamoyl)phenyl]pyrazol-1-yl]-3-fluorosulfonyloxy-1-methyl-4-(trifluoromethyl)pyrazole] | ≥ 80% | – | – | – | – | – | –
CN(C(=O)c1cc(-c2cnn(-c3c(C(F)(F)F)c(OS(=O)(=O)C(F)(F)C(F)(F)F)nn3C)c2)ccc1Cl)C1(C#N)CC1 [Compound 7, [5-[4-[4-chloro-3-[(1-cyanocyclopropyl)-methyl-carbamoyl]phenyl]pyrazol-1-yl]-1-methyl-4-(trifluoromethyl)pyrazol-3-yl] 1,1,2,2,2-pentafluoroethanesulfonate] | – | ≥ 80% | ≥ 80% | ≥ 80% | ≥ 80% | – | –
CN(C(=O)c1cc(-c2cnn(-c3c(C(F)(F)F)c(OS(=O)(=O)C(F)(F)C(F)(F)Cl)nn3C)c2)ccc1Cl)C1CC1 [Compound 11, [5-[4-[4-chloro-3-[cyclopropyl(methyl)carbamoyl]phenyl]pyrazol-1-yl]-1-methyl-4-(trifluoromethyl)pyrazol-3-yl] 2-chloro-1,1,2,2-tetrafluoro-ethanesulfonate] | – | ≥ 80% | ≥ 80% | ≥ 80% | ≥ 80% | – | –
CN(C(=O)c1cc(-c2cnn(-c3c(C(F)(F)F)c(OS(=O)(=O)C(F)(F)C(F)(F)C(F)(F)C(F)(F)F)nn3C)c2)ccc1Cl)C1CC1 [Compound 15, [5-[4-[4-chloro-3-[cyclopropyl(methyl)carbamoyl]phenyl]pyrazol-1-yl]-1-methyl-4-(trifluoromethyl)pyrazol-3-yl] 1,1,2,2,3,3,4,4,4-nonafluorobutane-1-sulfonate] | – | ≥ 80% | – | – | – | ≥ 80% | ≥ 80%
CN(C(=O)c1cc(-c2cnn(-c3c(C(F)(F)F)c(OS(=O)(=O)C(F)(F)C(F)(F)F)nn3C)c2)ccc1Cl)C1CC1 [Compound 16, [5-[4-[4-chloro-3-[cyclopropyl(methyl)carbamoyl]phenyl]pyrazol-1-yl]-1-methyl-4-(trifluoromethyl)pyrazol-3-yl] 1,1,2,2,2-pentafluoroethanesulfonate] | – | ≥ 80% | ≥ 80% | ≥ 80% | – | – | –
Cn1nc(OS(=O)(=O)C(F)(F)C(F)(F)C(F)(F)C(F)(F)F)c(C(F)(F)F)c1-n1cc(-c2cnc(Cl)c(C(=O)NC3(C#N)CC3)c2)cn1 [Compound 30, [5-[4-[6-chloro-5-[(1-cyanocyclopropyl)carbamoyl]-3-pyridyl]pyrazol-1-yl]-1-methyl-4-(trifluoromethyl)pyrazol-3-yl] 1,1,2,2,3,3,4,4,4-nonafluorobutane-1-sulfonate] | – | ≥ 80% | – | – | – | ≥ 80% | ≥ 80%
Cn1nc(OS(=O)(=O)C(F)(F)C(F)(F)C(F)(F)C(F)(F)F)c(C(F)(F)F)c1-c1cc(-c2ccc(Cl)c(C(=O)NC3CC3)c2)on1 [Compound 39, [5-[5-[4-chloro-3-(cyclopropylcarbamoyl)phenyl]isoxazol-3-yl]-1-methyl-4-(trifluoromethyl)pyrazol-3-yl] 1,1,2,2,3,3,4,4,4-nonafluorobutane-1-sulfonate] | – | – | – | – | – | ≥ 80% | ≥ 80%
CCN(C(=O)c1cc(-c2cc(-c3c(C(F)(F)F)c(OS(=O)(=O)C(F)(F)C(F)(F)C(F)(F)C(F)(F)F)nn3C)no2)ccc1Cl)C1(C#N)CC1 [Compound 44, [5-[5-[4-chloro-3-[(1-cyanocyclopropyl)-ethyl-carbamoyl]phenyl]isoxazol-3-yl]-1-methyl-4-(trifluoromethyl)pyrazol-3-yl] 1,1,2,2,3,3,4,4,4-nonafluorobutane-1-sulfonate] | – | ≥ 80% | – | – | – | ≥ 80% | –
